Data: US10975060B2, “High relaxivity gadolinium chelate compounds for use in magnetic resonance imaging” (BAYER PHARMA AKTIENGESELLSCHAFT, priority 2016, dated 2021)

What was measured:
Format in all cases: physicochemical
[1] = Relaxivity measurements at 1.4 T (MiniSpec mq60, 60 MHz, 37 °C) in water and human plasma; conditions: 1.41 T, normalized to Gd
Experimental: Relaxivity Measurements at 1.4 T
Relaxivity measurements at 1.41 T were performed using a MiniSpec mq60 spectrometer (Bruker Analytik, Karlsruhe, Germany) operating at a resonance frequency of 60 MHz and a temperature of 37° C. The T1 relaxation times were determined using the standard inversion recovery (IR) method with a fixed relaxation delay of at least 5×T1. The variable inversion time (TI) was calculated automatically by the standard software of the MiniSpec mq60 (8 steps). The T2 measurements were done by using a Carr-Purcell-Meiboom-Gill (CPMG) pulse sequence, applying a relaxation delay of at least 5×T1.
Each relaxivity measurement was performed using three different Gd concentrations (3 concentrations between 0.05 and 2 mM). The T1 and T2 relaxation times of the example compounds 1 to 10 were measured in different media for example in water and human plasma. Human plasma preparation: For each experiment fresh blood was taken from a volunteer using 10 mL citrate-tubes (Sarstedt S-Monovette 02.1067.001, 10 mL, Citrate). The 10 mL citrate-tubes were carefully inverted 10 times to mix blood and anticoagulant and centrifuged for 15 minutes at 1811 g at room temperature (Eppendorf, Centrifuge 5810R).
The relaxivities ri (where i=1, 2) were calculated on the basis of the measured relaxation rates Ri in water and plasma: Ri=Ri(0)+ri[CGd], where Ri(0) represent the relaxation rate of the respective solvent and CGd the concentration of the compound normalized to the Gadolinium. The Gadolinium concentrations of the investigated solutions were verified by Inductively Coupled Plasma Mass Spectrometry (ICP-MS Agilent 7500a, Waldbronn, Germany).

[2] = Dynamic CT diffusion phantom study (dialysis cassette in fetal bovine serum); conditions: dialysis cassette 20,000 MWCO, 20 mmol Gd/L, CT signal over 30 h
Experimental: The described dynamic CT diffusion study compares the ability of Examples 1-10 and Reference compounds 1 and 4 to pass a semipermeable membrane (20 kDa). A 128-row clinical CT device (SOMATOM Definition, 128; Siemens Healthcare, Forchheim, Germany) was used to monitor the diffusion through a semipermeable membrane at 100 kV and 104 mA. Single measurements were performed at 0 min, 1 min, 2 min, 3 min, 5 min, 10 min, 15 min, 20 min, 30 min, 45 min, 60 min, 2 h, 3 h, 5 h, 7 h, 22 h, 24 h, 30 h after placing the dialysis cassette (Slide-A-Lyser, 20,000 MWCO, 0.1-0.5 mL Capacity, Thermo Scientific, Roskilde, Denmark) filled with contrast agent in fetal bovine serum solution (FBS, Sigma, F7524). The images were reconstructed with a slice thickness of 2.4 mm and a B30 convolution kernel. The used concentration in the dialysis cassettes of the investigated Examples 1-10 and Reference compounds 1 and 4 was 20 mmol Gd/L.
The imaging results for all investigated Examples and the Reference compounds 1 and 4 for the time points 0 min and 30 h after placing the cassettes in the FBS solution are depicted in FIG. 1. For image analysis, regions of interest were manually drawn on 1 centrally located slice for each time point (a representative measurement region is indicated in FIG. 1: Image RC1).

[3] = Relaxivity measurements at 3.0 T (whole body MRI scanner, 37 °C) in water and human plasma; conditions: normalized to Gd, average ± standard deviation
Experimental: Relaxivity Measurements at 3.0 T
Relaxivity measurements at 3.0 T were performed with a whole body 3.0 T MRI Scanner (Philips Intera, Philips Healthcare, Hamburg, Germany) using a knee-coil (SENSE-Knee-8, Philips Healthcare, Hamburg, Germany). The sample tubes (CryoTubetm Vials, Thermo Scientific 1.8 mL, Roskilde, Denmark) were positioned in 3 rows of 4 and 5 tubes in a plastic holder in a box filled with water. The temperature was adjusted to 37° C. For the MRI sequence the shortest possible echo-time (TE) with 7.46 milliseconds was used. The inversion times were chosen to optimize the sequence to measure T1 values corresponding to the estimated T1 range of all relaxation times of contrast media containing solutions. The following inversion times (TIs) were applied: 50, 100, 150, 200, 300, 500, 700, 1000, 1400, 2100, 3200, and 4500 milliseconds. The sequence was run with a constant relaxation delay of 3.4 seconds after the registration of the last echo (variable TR in the range from 3450 to 7900 milliseconds). For details of the fit procedure, see Rohrer et. al. (Invest. Radiol. 2005; 40, 11: 715-724). The experimental matrix of the phantom measurement was 320×320.
The relaxivities were evaluated using three different concentrations of each compound (3 concentrations between 0.05 and 2 mM).
The T1 relaxation times of Example compounds were measured in water and human plasma. Human plasma preparation: For each experiment fresh blood was taken from a volunteer using 10 mL citrate-tubes (Sarstedt S-Monovette 02.1067.001, 10 mL, Citrate). The 10 mL citrate-tubes were carefully inverted 10 times to mix blood and anticoagulant and centrifuged for 15 minutes at 1811 g at room temperature (Eppendorf, Centrifuge 5810R).
The relaxivities ri (where i=1, 2) were calculated on the basis of the measured relaxation rates Ri in water and plasma: Ri=Ri(0)+ri[CGd], where Ri(0) represent the relaxation rate of the respective solvent and CGd the concentration of the compound normalized to the Gadolinium (Table 2).

[4] = Water solubility (exploratory, 10 mM Tris-HCl, 20 °C); conditions: water (10 mM Tris-HCl buffer), pH 7.4
Experimental: The exploratory water solubilities of the compounds were determined at room temperature (20° C.) in 0.5 mL buffer solution (10 mM Tris-HCl) in the microcentrifuge tubes (Eppendorf, 2.0 mL safe-lock caps). The solid compounds were added stepwise to the buffer solution. The suspension was mixed using a shaker (Heidolph Reax 2000) and treated 5 min in an ultrasound bath (Bandelin, Sonorex Super RK255H).

SMILES	r1 human plasma [1] [L/mmol/s]	r1 water [1] [L/mmol/s]	Diffusion half-live (20 kDa) [2] [h]	r1 human plasma [3] [L/mmol/s]	r1 water [3] [L/mmol/s]	Solubility [4] [mg/100 mL]
CCN(CC(=O)NCC(CNC(=O)CN(CC)C(=O)CN1CCN(CC(=O)[O-])CCN(CC(=O)[O-])CCN(CC(=O)[O-])CC1)(CNC(=O)CN(CC)C(=O)CN1CCN(CC(=O)[O-])CCN(CC(=O)[O-])CCN(CC(=O)[O-])CC1)CNC(=O)CN(CC)C(=O)CN1CCN(CC(=O)[O-])CCN(CC(=O)[O-])CCN(CC(=O)[O-])CC1)C(=O)CN1CCN(CC(=O)[O-])CCN(CC(=O)[O-])CCN(CC(=O)[O-])CC1.[Gd+3].[Gd+3].[Gd+3].[Gd+3] [Example 2, Tetragadolinium [4,10-bis(carboxylatomethyl)-7-{3,13-diethyl-8,8-bis({[(ethyl{[4,7,10-tris(carboxylatomethyl)-1,4,7,10-tetraazacyclododecan-1-yl]acetyl}amino)acetyl]-amino}methyl)-2,5,11,14-tetraoxo-15-[4,7,10-tris(carboxylatomethyl)-1,4,7,10-tetraaza-cyclododecan-1-yl]-3,6,10,13-tetraazapentadec-1-yl}-1,4,7,10-tetraazacyclododecan-1-yl]acetate]	11.6	10.4	13.3	11.3 ± 0.1	9.4 ± 0.1	>1000
O=C([O-])CN1CCN(CC(=O)[O-])CCN(CC(=O)N(CC(=O)NCC(CNC(=O)CN(C(=O)CN2CCN(CC(=O)[O-])CCN(CC(=O)[O-])CCN(CC(=O)[O-])CC2)C2CCCC2)(CNC(=O)CN(C(=O)CN2CCN(CC(=O)[O-])CCN(CC(=O)[O-])CCN(CC(=O)[O-])CC2)C2CCCC2)CNC(=O)CN(C(=O)CN2CCN(CC(=O)[O-])CCN(CC(=O)[O-])CCN(CC(=O)[O-])CC2)C2CCCC2)C2CCCC2)CCN(CC(=O)[O-])CC1.[Gd+3].[Gd+3].[Gd+3].[Gd+3] [Example 8, Tetragadolinium [4,10-bis(carboxylatomethyl)-7-{3,13-dicyclopentyl-8,8-bis({[(cyclopentyl{[4,7,10-tris(carboxylatomethyl)-1,4,7,10-tetraazacyclododecan-1-yl]acetyl}-amino)acetyl]amino}methyl)-2,5,11,14-tetraoxo-15-[4,7,10-tris(carboxylatomethyl)-1,4,7,10-tetraazacyclododecan-1-yl]-3,6,10,13-tetraazapentadec-1-yl}-1,4,7,10-tetra-azacyclododecan-1-yl]acetate]	14.1	11.7	10.5	12.0 ± 0.4	10.7 ± 0.1	>1000
CC(C)N(CC(=O)NCC(CNC(=O)CN(C(=O)CN1CCN(CC(=O)[O-])CCN(CC(=O)[O-])CCN(CC(=O)[O-])CC1)C(C)C)(CNC(=O)CN(C(=O)CN1CCN(CC(=O)[O-])CCN(CC(=O)[O-])CCN(CC(=O)[O-])CC1)C(C)C)CNC(=O)CN(C(=O)CN1CCN(CC(=O)[O-])CCN(CC(=O)[O-])CCN(CC(=O)[O-])CC1)C(C)C)C(=O)CN1CCN(CC(=O)[O-])CCN(CC(=O)[O-])CCN(CC(=O)[O-])CC1.[Gd+3].[Gd+3].[Gd+3].[Gd+3] [Example 5, Tetragadolinium [4,10-bis(carboxylatomethyl)-7-{3,13-diisopropyl-8,8-bis({[(isopropyl-{[4,7,10-tris(carboxylatomethyl)-1,4,7,10-tetraazacyclododecan-1-yl]acetyl}amino)-acetyl]amino}methyl)-2,5,11,14-tetraoxo-15-[4,7,10-tris(carboxylatomethyl)-1,4,7,10-tetraazacyclododecan-1-yl]-3,6,10,13-tetraazapentadec-1-yl}-1,4,7,10-tetraazacyclo-dodecan-1-yl]acetate]	13.1	11.1	10.8	11.6 ± 0.4	10.2 ± 0.1	>1000
COCCN(CC(=O)NCC(CNC(=O)CN(CCOC)C(=O)CN1CCN(CC(=O)[O-])CCN(CC(=O)[O-])CCN(CC(=O)[O-])CC1)(CNC(=O)CN(CCOC)C(=O)CN1CCN(CC(=O)[O-])CCN(CC(=O)[O-])CCN(CC(=O)[O-])CC1)CNC(=O)CN(CCOC)C(=O)CN1CCN(CC(=O)[O-])CCN(CC(=O)[O-])CCN(CC(=O)[O-])CC1)C(=O)CN1CCN(CC(=O)[O-])CCN(CC(=O)[O-])CCN(CC(=O)[O-])CC1.[Gd+3].[Gd+3].[Gd+3].[Gd+3] [Example 3, Tetragadolinium {4,10-bis(carboxylatomethyl)-7-[15-(2-methoxyethyl)-10,10-bis[({[(2-methoxyethyl){[4,7,10-tris(carboxylatomethyl)-1,4,7,10-tetraazacyclododecan-1-yl]-acetyl}amino]acetyl}amino)methyl]-7,13,16-trioxo-5-{[4,7,10-tris(carboxylatomethyl)-1,4,7,10-tetraazacyclododecan-1-yl]acetyl}-2-oxa-5,8,12,15-tetraazaheptadecan-17-yl]-1,4,7,10-tetraazacyclododecan-1-yl}acetate]	11.7	10.3	11.6	10.9 ± 0.1	9.5 ± 0.1	>1000
